Some test systems named below: 786-0 renal; ACHN renal; DU-145 prostate; HOP-62 NSCLC; HOP-92 NSCLC; HT29 colon; K-562 leukemia; M14 melanoma; OVCAR-5 ovarian; RXF 393 renal.
Holding throughout (test): NCI-60 cell line screen, 48 h

Where “and” joins values, the source holds several entries; their conditions need not be identical. Identical values can stand only once.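 Step 1: Grow cells in 96-well plates. Step 2: Expose to compound for 48 hours at 5 concentrations. Step 3: Interpolate endpoints linearly; if unreached, use highest concentration. GI50 is the concentration that inhibits growth by half. The concentration for full growth arrest is given as TGI.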 Where only a bound is given, the exact number is not on record here.

As for `O=C(/C=C/c1cccs1)c1cccc(C(=O)/C=C/c2cccs2)n1`, the TGI in the assay on 786-0 renal was 38.2 µM; in the assay on ACHN renal, over 100 µM; in the assay with DU-145 prostate, over 100 µM; in the assay on HOP-62 NSCLC it was over 100 µM; with HOP-92 NSCLC, over 100 µM; in the assay with HT29 colon, over 34.1 µM. Moreover, the TGI was over 100 µM in the assay on K-562 leukemia, over 100 µM in the assay on M14 melanoma, over 100 µM with OVCAR-5 ovarian and over 86.9 µM in the assay on RXF 393 renal.
Take `Clc1ccc2c(NCCNc3ccnc4cc(Cl)ccc34)ccnc2c1`: the TGI in the assay on 786-0 renal was found to be 28.2 µM; in the assay on ACHN renal, 32.7 µM; in the assay on DU-145 prostate it was 48.2 µM; with HOP-62 NSCLC it was 30.1 µM; in the assay on HOP-92 NSCLC, 38.5 µM; with HT29 colon, 29.5 µM. Besides, the TGI was 28.2 µM with K-562 leukemia, 31.2 µM with M14 melanoma, 33.3 µM in the assay on OVCAR-5 ovarian and 36.1 µM with RXF 393 renal.
In the case of `COc1ccc(N=C2C(=Nc3ccc(OC)cc3)N(S(=O)(=O)c3ccccc3)C(=S)N2c2ccc(OC)cc2)cc1`, the TGI with 786-0 renal, in the assay on ACHN renal, in the assay with DU-145 prostate, in the assay on HOP-62 NSCLC, with HOP-92 NSCLC and with K-562 leukemia was over 100 µM each time. Moreover, the TGI in the assay with M14 melanoma, in the assay on OVCAR-5 ovarian and with RXF 393 renal was over 100 µM in each case.
In the case of `O=C1C=C(N2CC2)C(=O)C=C1N1CC1`, the TGI in the assay on ACHN renal is 0.303 µM; in the assay on HOP-62 NSCLC it was 0.738 µM; in the assay on HOP-92 NSCLC, 0.576 µM and 1.56 µM; with HT29 colon it was 1.4 µM; in the assay on K-562 leukemia, 2.94 µM; with M14 melanoma, 0.249 µM. Besides, the TGI in the assay on OVCAR-5 ovarian was 0.366 µM and 2.2 µM. For the same compound, the GI50 was 0.0109 µM with DU-145 prostate; 0.0687 µM with HOP-62 NSCLC; 0.152 µM in the assay on HOP-92 NSCLC; 0.0185 µM in the assay with HT29 colon; 0.246 µM with K-562 leukemia; 0.0288 µM with M14 melanoma. For the same compound, the GI50 in the assay with OVCAR-5 ovarian was 0.0784 µM; in the assay with RXF 393 renal, 0.00246 µM.
Take `O=C1OC(C2OC(=O)c3cc(O)c(O)c(O)c3-c3c(O)c(O)c4oc(=O)c5c(c(O)c(O)c6oc(=O)c3c4c65)-c3c(cc(O)c(O)c3O)C(=O)OCC2O)C2OC(=O)c3c(c(O)c(O)c(O)c3[C@H]2O)-c2c1cc(O)c(O)c2O` (some centres undefined): the TGI in the assay with 786-0 renal was 44.9 µM; with ACHN renal, 80.3 µM; with DU-145 prostate, over 100 µM; in the assay with HOP-62 NSCLC, over 100 µM; with HOP-92 NSCLC, 87.1 µM; in the assay with HT29 colon it was 31.6 µM. Also, the TGI in the assay on K-562 leukemia is 42.5 µM; with M14 melanoma it was 39.5 µM; in the assay with OVCAR-5 ovarian it was 47.3 µM; with RXF 393 renal it was 73.5 µM.
`COC(=O)[C@H](Cc1ccccc1)NP(=O)(O)OCC1OC(n2cc(C)c(=O)[nH]c2=O)CC1N=[N+]=[N-]` (some centres undefined): the TGI in the assay on 786-0 renal, in the assay on ACHN renal, in the assay on DU-145 prostate, in the assay on HOP-62 NSCLC, with HOP-92 NSCLC and with HT29 colon was over 100 µM each time. In addition, the TGI in the assay on K-562 leukemia, with M14 melanoma, in the assay with OVCAR-5 ovarian and in the assay with RXF 393 renal was over 100 µM each time.
Regarding `O=C1CC(c2ccc[nH]2)=NN1c1ccccc1`, the TGI in the assay on 786-0 renal, with ACHN renal, with DU-145 prostate, in the assay on HOP-62 NSCLC, with HOP-92 NSCLC and in the assay with HT29 colon was over 100 µM in each case. Moreover, the TGI in the assay on K-562 leukemia, with M14 melanoma, with OVCAR-5 ovarian and in the assay on RXF 393 renal was over 100 µM in each case.
Consider `CCOC(=O)/C=C(\N=P(c1ccccc1)(c1ccccc1)c1ccccc1)C(F)(F)C(F)(F)C(F)(F)C(F)(F)C(F)(F)F`, for which the TGI in the assay with 786-0 renal, with ACHN renal, with DU-145 prostate, in the assay with HOP-62 NSCLC, in the assay with HOP-92 NSCLC and in the assay with HT29 colon was over 100 µM throughout. For the same compound, the TGI with K-562 leukemia, in the assay with M14 melanoma, in the assay on OVCAR-5 ovarian and in the assay with RXF 393 renal was over 100 µM throughout.
With `COc1ccc(-n2c3c(c4c(CN(C)C)c(O)ccc42)C(=O)c2ccccc2C3=O)cc1`, the TGI in the assay on 786-0 renal was found to be 4.52 µM; in the assay with ACHN renal, 3.9 µM; with DU-145 prostate, 29.2 µM; in the assay on HOP-62 NSCLC, 4.72 µM; with HOP-92 NSCLC, 44.8 µM; in the assay with HT29 colon, 6.3 µM. Also, the TGI in the assay on K-562 leukemia was 4.62 µM; with M14 melanoma, 11.8 µM; with OVCAR-5 ovarian, 17.1 µM; in the assay with RXF 393 renal, 52.2 µM.
As to `COc1ccc(C2SCC(=O)N2NC(=O)C(C)Oc2ccccc2Cl)cc1` (centres undefined), the TGI with 786-0 renal is over 100 µM; in the assay on ACHN renal, over 100 µM; with DU-145 prostate, over 100 µM; in the assay with HOP-92 NSCLC, 77.4 µM; in the assay on HT29 colon it was over 100 µM; in the assay on K-562 leukemia, over 100 µM. Besides, the TGI in the assay on M14 melanoma, in the assay on OVCAR-5 ovarian and in the assay on RXF 393 renal was over 100 µM throughout.
For `COc1cc2cc(C(=O)N3CC(CCl)c4c3cc(N(C)C)c3ccccc43)[nH]c2c(OC)c1OC` (centres undefined), the TGI in the assay on ACHN renal is over 100 µM; in the assay with DU-145 prostate, 0.492 µM; in the assay with HOP-62 NSCLC it was 0.0529 µM; with HOP-92 NSCLC, over 53.9 µM; in the assay on K-562 leukemia it was 0.0477 µM; in the assay with M14 melanoma it was 0.0185 µM. Also, the TGI in the assay on OVCAR-5 ovarian stood at 0.039 µM; in the assay on RXF 393 renal it was 0.0334 µM.
Consider `CC[C@@]1(O)C(=O)OCc2c1cc1n(c2=O)Cc2c-1nc1ccccc1c2/C=N\NC(=O)C(N)Cc1cnc[nH]1` (some centres undefined), for which the TGI in the assay with ACHN renal was 1.18 µM; with DU-145 prostate, over 100 µM; in the assay with HOP-62 NSCLC, 0.299 µM; in the assay with HOP-92 NSCLC, over 41.5 µM; in the assay with HT29 colon, over 57.3 µM; with K-562 leukemia, over 100 µM. The TGI with M14 melanoma is 2.63 µM; with OVCAR-5 ovarian, over 54.6 µM; in the assay with RXF 393 renal it was 9.59 µM.
Regarding `Cc1ccc(Nc2sc(C)cc2C#N)c([N+](=O)[O-])c1`, the TGI in the assay with 786-0 renal, with ACHN renal, in the assay on DU-145 prostate, in the assay on HOP-62 NSCLC, in the assay with HOP-92 NSCLC and in the assay on K-562 leukemia was over 100 µM each time. In addition, the TGI in the assay with M14 melanoma, with OVCAR-5 ovarian and in the assay with RXF 393 renal was over 100 µM throughout.

Source of the values: PubChem BioAssay (NCI).
